According to PubChem BioAssay (NCI):
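48-hour exposure; five concentrations; linearly interpolated endpoints. GI50 = concentration required for 50% inhibition of growth. TGI denotes the concentration required for complete inhibition of growth.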

Legend:
Assay in all cases: NCI-60 cell line screen, 48 h; in the data active = GI50 below about 0.43 µM; inactive = the rest
COLO 205 colon = tested on: COLO 205 colon
A549 NSCLC = tested on: A549 NSCLC
HOP-62 NSCLC = tested on: HOP-62 NSCLC
SK-MEL-2 melanoma = tested on: SK-MEL-2 melanoma
UO-31 renal = tested on: UO-31 renal
PC-3 prostate = tested on: PC-3 prostate
MDA-MB-231 breast = tested on: MDA-MB-231 breast
SNB-19 CNS = tested on: SNB-19 CNS
DU-145 prostate = tested on: DU-145 prostate
MALME-3M melanoma = tested on: MALME-3M melanoma
A498 renal = tested on: A498 renal
SK-MEL-5 melanoma = tested on: SK-MEL-5 melanoma
IGROV1 ovarian = tested on: IGROV1 ovarian
SF-268 CNS = tested on: SF-268 CNS
SR leukemia = tested on: SR leukemia
SW-620 colon = tested on: SW-620 colon
MDA-MB-435 = tested on: MDA-MB-435
OVCAR-5 ovarian = tested on: OVCAR-5 ovarian
SK-MEL-28 melanoma = tested on: SK-MEL-28 melanoma
NCI-H460 lung = tested on: NCI-H460 lung
786-0 renal = tested on: 786-0 renal
NCI-H23 lung = tested on: NCI-H23 lung
HL-60(TB) leukemia = tested on: HL-60(TB) leukemia
RPMI-8226 leukemia = tested on: RPMI-8226 leukemia
U251 CNS = tested on: U251 CNS
NCI-H226 lung = tested on: NCI-H226 lung
HCT-116 colon = tested on: HCT-116 colon
OVCAR-4 ovarian = tested on: OVCAR-4 ovarian
SK-OV-3 ovarian = tested on: SK-OV-3 ovarian
SNB-75 CNS = tested on: SNB-75 CNS
HOP-92 NSCLC = tested on: HOP-92 NSCLC
KM12 colon = tested on: KM12 colon
HCC-2998 colon = tested on: HCC-2998 colon
HCT-15 colon = tested on: HCT-15 colon
K-562 leukemia = tested on: K-562 leukemia
SF-539 CNS = tested on: SF-539 CNS
HS 578T breast = tested on: HS 578T breast
T-47D breast = tested on: T-47D breast
M14 melanoma = tested on: M14 melanoma
RXF 393 renal = tested on: RXF 393 renal
NCI-H522 lung = tested on: NCI-H522 lung
TK-10 renal = tested on: TK-10 renal
BT-549 breast = tested on: BT-549 breast
UACC-62 melanoma = tested on: UACC-62 melanoma
NCI/ADR-RES ovarian = tested on: NCI/ADR-RES ovarian
HT29 colon = tested on: HT29 colon
CAKI-1 renal = tested on: CAKI-1 renal
MCF7 breast = tested on: MCF7 breast
ACHN renal = tested on: ACHN renal
UACC-257 melanoma = tested on: UACC-257 melanoma
SN12C renal = tested on: SN12C renal
SF-295 CNS = tested on: SF-295 CNS
OVCAR-3 ovarian = tested on: OVCAR-3 ovarian

CC(=O)Oc1cc(C(C)C)c(OCCN(C)C)cc1C
inactive: GI50 (COLO 205 colon) > 100 µM | GI50 (A549 NSCLC) > 100 µM | GI50 (HOP-62 NSCLC) > 100 µM | GI50 (SK-MEL-2 melanoma) > 100 µM | GI50 (UO-31 renal) > 100 µM | GI50 (PC-3 prostate) > 100 µM | GI50 (MDA-MB-231 breast) > 100 µM | GI50 (SNB-19 CNS) > 100 µM | GI50 (DU-145 prostate) > 100 µM | GI50 (MALME-3M melanoma) > 100 µM | GI50 (A498 renal) > 100 µM | GI50 (SK-MEL-5 melanoma) > 100 µM | GI50 (IGROV1 ovarian) > 100 µM | GI50 (SF-268 CNS) > 100 µM | GI50 (SR leukemia) > 100 µM | GI50 (SW-620 colon) > 100 µM | GI50 (MDA-MB-435) > 100 µM | GI50 (OVCAR-5 ovarian) > 100 µM | GI50 (SK-MEL-28 melanoma) > 100 µM | GI50 (NCI-H460 lung) > 100 µM | GI50 (786-0 renal) > 100 µM | GI50 (NCI-H23 lung) > 100 µM | GI50 (HL-60(TB) leukemia) > 100 µM | GI50 (RPMI-8226 leukemia) > 100 µM | GI50 (U251 CNS) > 100 µM | GI50 (NCI-H226 lung) > 100 µM | GI50 (HCT-116 colon) > 100 µM | GI50 (OVCAR-4 ovarian) > 100 µM | GI50 (SK-OV-3 ovarian) > 100 µM | GI50 (SNB-75 CNS) 50.9 µM | GI50 (HOP-92 NSCLC) > 100 µM | GI50 (KM12 colon) > 100 µM | GI50 (HCC-2998 colon) > 100 µM | GI50 (HCT-15 colon) > 100 µM | GI50 (K-562 leukemia) > 100 µM | GI50 (SF-539 CNS) > 100 µM | GI50 (HS 578T breast) > 100 µM | GI50 (T-47D breast) > 100 µM | GI50 (M14 melanoma) > 100 µM | GI50 (RXF 393 renal) > 100 µM | GI50 (NCI-H522 lung) > 100 µM | GI50 (TK-10 renal) > 100 µM | GI50 (BT-549 breast) > 100 µM | GI50 (UACC-62 melanoma) > 100 µM | GI50 (NCI/ADR-RES ovarian) > 100 µM | GI50 (HT29 colon) > 100 µM | GI50 (CAKI-1 renal) > 100 µM | GI50 (MCF7 breast) > 100 µM | GI50 (ACHN renal) > 100 µM | GI50 (UACC-257 melanoma) > 100 µM | GI50 (SN12C renal) > 100 µM | GI50 (SF-295 CNS) > 100 µM | GI50 (OVCAR-3 ovarian) > 100 µM
> 100 µM: TGI (COLO 205 colon) | TGI (A549 NSCLC) | TGI (HOP-62 NSCLC) | TGI (SK-MEL-2 melanoma) | TGI (UO-31 renal) | TGI (PC-3 prostate) | TGI (MDA-MB-231 breast) | TGI (SNB-19 CNS) | TGI (DU-145 prostate) | TGI (MALME-3M melanoma) | TGI (A498 renal) | TGI (SK-MEL-5 melanoma) | TGI (IGROV1 ovarian) | TGI (SF-268 CNS) | TGI (SR leukemia) | TGI (SW-620 colon) | TGI (MDA-MB-435) | TGI (OVCAR-5 ovarian) | TGI (SK-MEL-28 melanoma) | TGI (NCI-H460 lung) | TGI (786-0 renal) | TGI (NCI-H23 lung) | TGI (HL-60(TB) leukemia) | TGI (RPMI-8226 leukemia) | TGI (U251 CNS) | TGI (NCI-H226 lung) | TGI (HCT-116 colon) | TGI (OVCAR-4 ovarian) | TGI (SK-OV-3 ovarian) | TGI (SNB-75 CNS) | TGI (HOP-92 NSCLC) | TGI (KM12 colon) | TGI (HCC-2998 colon) | TGI (HCT-15 colon) | TGI (K-562 leukemia) | TGI (SF-539 CNS) | TGI (HS 578T breast) | TGI (T-47D breast) | TGI (M14 melanoma) | TGI (RXF 393 renal) | TGI (NCI-H522 lung) | TGI (TK-10 renal) | TGI (BT-549 breast) | TGI (UACC-62 melanoma) | TGI (NCI/ADR-RES ovarian) | TGI (HT29 colon) | TGI (CAKI-1 renal) | TGI (MCF7 breast) | TGI (ACHN renal) | TGI (UACC-257 melanoma) | TGI (SN12C renal) | TGI (SF-295 CNS) | TGI (OVCAR-3 ovarian)
